One test deals with human FPR1 (Homo sapiens (Human), UniProt P21462). Briefly: FPR1 cyclic adenosine monophosphate (cAMP) assay. It is filed as cell-based. The following applies: CHO cells overexpressing human FPR1; forskolin 10 µM; inhibition of cAMP production; read-out: hFPR1 cAMP EC50. In a few lines:
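CHO cells overexpressing human FPR1 (4,000 cells/well) stimulated with 10 µM forskolin plus 200 µM IBMX in the presence of compound (0.020 nM–100 µM, 1% DMSO), 30 min at room temperature. Intracellular cAMP measured by HTRF. Inhibition of cAMP production fitted to a 4-parameter logistic equation.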
For orientation: Cyclic AMP is a second messenger, typically raised through Gs and lowered through Gi signalling.

The target in another test is human FPR2 (Homo sapiens (Human), UniProt P25090). Briefly: FPR2 cyclic adenosine monophosphate (cAMP) assay. The following applies: CHO cells overexpressing human FPR2; forskolin 5 µM; inhibition of cAMP production; read-out: hFPR2 cAMP2 EC50. It counts as cell-based. Summed up: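 CHO cells overexpressing human FPR2 (2,000/well) incubated 30 min at room temperature with compound (0.020 nM–100 µM, 1% DMSO), 5 µM forskolin and 200 µM IBMX.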

Some results are limits rather than exact numbers.

Drawing on patent publication US20230348426A1, “OXOPYRROLIDINE FPR2 AGONISTS” (Bristol-Myers Squibb Company, priority 2020, published 2023), this text covers EC50 for 43 compounds.

Usually EC50 stands for the concentration giving half of the maximal effect.

human FPR2, sequence (P25090 whole entry): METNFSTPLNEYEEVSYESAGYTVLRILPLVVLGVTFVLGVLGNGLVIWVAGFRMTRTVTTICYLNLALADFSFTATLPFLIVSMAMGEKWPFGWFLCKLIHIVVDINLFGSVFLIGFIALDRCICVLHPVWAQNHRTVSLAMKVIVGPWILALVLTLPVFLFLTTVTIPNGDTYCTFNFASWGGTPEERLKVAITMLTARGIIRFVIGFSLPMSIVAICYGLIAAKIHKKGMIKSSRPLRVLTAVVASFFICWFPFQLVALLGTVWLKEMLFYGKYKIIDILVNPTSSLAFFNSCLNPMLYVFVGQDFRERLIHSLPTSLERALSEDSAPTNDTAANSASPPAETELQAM
human FPR1, sequence (P21462 whole entry): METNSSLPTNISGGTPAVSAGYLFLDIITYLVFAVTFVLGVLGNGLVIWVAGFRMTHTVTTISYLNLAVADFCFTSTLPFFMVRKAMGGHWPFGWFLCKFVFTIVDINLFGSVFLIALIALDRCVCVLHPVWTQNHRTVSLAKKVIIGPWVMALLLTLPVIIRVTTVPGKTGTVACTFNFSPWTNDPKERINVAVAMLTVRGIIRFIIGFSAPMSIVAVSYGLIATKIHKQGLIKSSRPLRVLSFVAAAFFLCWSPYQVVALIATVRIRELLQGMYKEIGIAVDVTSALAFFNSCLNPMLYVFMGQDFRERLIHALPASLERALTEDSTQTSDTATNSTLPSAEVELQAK

On to `COc1cc(F)c([C@@H]2CN(c3cccnc3OC3CCOC3)C(=O)[C@H]2NC(=O)c2ccc(OC(F)(F)F)cc2)c(F)c1` (some centres unmarked) [Example 235], for which the concentration giving a half-maximal response (EC50) came to 84 nM on human FPR1 and 6.5 nM on human FPR2.

Take `O=C(N[C@@H]1C(=O)N(c2cccn(CC(F)F)c2=O)C[C@H]1c1ccc(Cl)cc1)c1ccc(OC(F)F)cc1` [Example 236]: the half-maximal effective concentration (EC50) at human FPR1 was found to be 30 nM; at human FPR2, 6.5 nM.

Turning to `COc1cc(F)c([C@@H]2CN(c3cc(C(F)(F)F)cn(C)c3=O)C(=O)[C@H]2NC(=O)c2ccc(Cl)cc2)c(F)c1` [Example 238], the EC50 is 1500 nM at human FPR1 and 6.6 nM at human FPR2.

On to `COc1cc(F)c([C@@H]2CN(c3nccc(NCC(C)(C)O)c3C(F)(F)F)C(=O)[C@H]2NC(=O)c2ccc(OC(F)F)cc2)c(F)c1` [Example 239], for which the values for the EC50 on human FPR1 and on human FPR2 were 650 nM and 6.6 nM, respectively.

Regarding `COc1cc(F)c([C@@H]2CN(c3ccc(CO)[nH]c3=O)C(=O)[C@H]2NC(=O)c2ccc(OC(F)(F)F)cc2)c(F)c1` [Example 240], the values for the half-maximal effective concentration (EC50) at human FPR1 and on human FPR2 were 130 nM and 6.6 nM, respectively.

As to `COc1cc(F)c([C@@H]2CN(c3cccn(CCC(F)(F)F)c3=O)C(=O)[C@H]2NC(=O)c2ccc(OC(F)F)cc2)c(F)c1` [Example 241], the results for the EC50 at human FPR1 and on human FPR2 were 38 nM and 6.6 nM, respectively.

Take `CCn1cccc(N2C(=O)[C@@H](NC(=O)c3ccc(OC(F)(F)F)cc3)[C@H](c3c(F)cc(OC)cc3F)[C@H]2C)c1=O` [Example 242]: the EC50 was 110 nM on human FPR1 and 6.7 nM at human FPR2.

Take `COc1cc(F)c([C@@H]2CN(c3ccc(CO)n(C)c3=O)C(=O)[C@H]2NC(=O)c2ccc(OC(F)F)cc2)c(F)c1` [Example 243]: the concentration giving a half-maximal response (EC50) was determined as 170 nM at human FPR1 and 6.7 nM at human FPR2.

As to `COc1cc(F)c([C@@H]2CN(c3cc(C)cn(C)c3=O)C(=O)[C@H]2NC(=O)c2ccc(OC(F)F)cc2)c(F)c1` [Example 244], the 50% effective concentration (EC50) was 950 nM on human FPR1 and 6.8 nM on human FPR2.

Turning to `COCC(C(=O)N(C)C)n1cccc(N2C[C@@H](c3ccc(Cl)cc3)[C@H](NC(=O)c3ccc(OC(F)(F)F)cc3)C2=O)c1=O` (some centres unmarked) [Example 245], the figures for the EC50 on human FPR1 and on human FPR2 were 1.1 nM and 6.8 nM, respectively.

Turning to `COc1cc(F)c([C@@H]2CN(c3nc(N4C(=O)CC[C@H]4CO)ccc3F)C(=O)[C@H]2NC(=O)c2ccc(OC(F)(F)F)cc2)c(F)c1` [Example 246], the 50% effective concentration (EC50) on human FPR1 was 280 nM; at human FPR2, 6.9 nM.

For `COc1cc(F)c([C@@H]2CN(c3nc(C)ccc3C(F)(F)F)C(=O)[C@H]2NC(=O)c2ccc(OC(F)F)cc2)c(F)c1` [Example 247], the EC50 at human FPR1 amounted to 250 nM; at human FPR2, 6.9 nM.

With `COCC(C(=O)N(C)C)n1ccc(C)c(N2C[C@@H](c3c(F)cc(OC)cc3F)[C@H](NC(=O)c3ccc(OC(F)(F)F)cc3)C2=O)c1=O` (some centres unmarked) [Example 248], the EC50 at human FPR1 amounted to 0.7 nM; at human FPR2, 6.9 nM.

`CCn1cccc(N2C[C@@H](c3ccc(OC)cc3F)[C@H](NC(=O)c3ccc(OC(F)(F)F)cc3)C2=O)c1=O` [Example 249]: the EC50 on human FPR1 was 13 nM; on human FPR2, 6.9 nM.

Turning to `COc1cc(F)c([C@@H]2CN(c3nccc(N4CCN(C)CC4)c3C(F)(F)F)C(=O)[C@H]2NC(=O)c2ccc(Cl)cc2)c(F)c1` [Example 250], the EC50 on human FPR1 is 4800 nM; on human FPR2 it was 6.9 nM.

Take `COc1cc(F)c([C@@H]2CN(c3c(C#N)ccn(C)c3=O)C(=O)[C@H]2NC(=O)c2ccc(Cl)cc2)c(F)c1` [Example 251]: the EC50 at human FPR1 was > 5000 nM; on human FPR2 it was 7 nM.

For the compound `COCC(CO)n1cccc(N2C[C@@H](c3ccc(OC)cc3)[C@H](NC(=O)c3ccc(OC(F)F)cc3)C2=O)c1=O` (some centres unmarked) [Example 252], the EC50 at human FPR1 came to 44 nM; at human FPR2, 7 nM.

In the case of `COc1cc(F)c([C@@H]2CN(c3cccn(CC(C)OC)c3=O)C(=O)[C@H]2NC(=O)c2ccc(OC(F)F)cc2)c(F)c1` (some centres unmarked) [Example 253], the EC50 at human FPR1 came out at 11 nM; at human FPR2 it was 7 nM.

In the case of `COc1cc(F)c([C@@H]2CN(c3cccn(CC(C)(CO)CO)c3=O)C(=O)[C@H]2NC(=O)c2ccc(OC(F)(F)F)cc2)c(F)c1` [Example 254], the 50% effective concentration (EC50) on human FPR1 was 52 nM; at human FPR2, 7 nM.

In the case of `CCn1cccc(N2C(=O)[C@@H](NC(=O)c3ccc(OC(F)F)cc3)[C@H](c3c(F)cc(OC)cc3F)[C@H]2C)c1=O` [Example 255], the EC50 on human FPR1 is 52 nM; at human FPR2 it was 7 nM.

Turning to `COc1cc(F)c([C@@H]2CN(c3nc(N4C[C@H]5C[C@@H]4CO5)ccc3F)C(=O)[C@H]2NC(=O)c2ccc(OC(F)F)cc2)c(F)c1` [Example 256], the concentration giving a half-maximal response (EC50) at human FPR1 was found to be 530 nM; at human FPR2 it was 7.2 nM.

As to `COCC(C(=O)N(C)C)n1ccc(C)c(N2C[C@@H](c3c(F)cc(OC)cc3F)[C@H](NC(=O)c3ccc(OC(F)F)cc3)C2=O)c1=O` (some centres unmarked) [Example 257], the results for the EC50 at human FPR1 and on human FPR2 were 1.6 nM and 7.3 nM, respectively.

Consider `COc1cc(F)c([C@@H]2CN(c3cccn(CCF)c3=O)C(=O)[C@H]2NC(=O)c2ccc(OC(F)F)cc2)c(F)c1` [Example 258], for which the EC50 on human FPR1 was 83 nM; on human FPR2, 7.4 nM.

`COc1cc(F)c([C@@H]2CN(c3nc(N4C[C@@H]5C[C@H]4CN5C)ccc3OC)C(=O)[C@H]2NC(=O)c2ccc(Cl)cc2)c(F)c1` [Example 259]: the EC50 worked out at 580 nM on human FPR1 and 7.4 nM on human FPR2.

Take `COCCn1ccc(C)c(N2C[C@@H](c3ccc(OC)cc3)[C@H](NC(=O)c3ccc(OC(F)F)cc3)C2=O)c1=O` [Example 260]: the EC50 at human FPR1 came to 1.2 nM; at human FPR2, 7.5 nM.

On to `CNc1ccnc(N2C[C@@H](c3c(F)cc(OC)cc3F)[C@H](NC(=O)c3ccc(OC(F)F)cc3)C2=O)c1C(F)(F)F` [Example 261], for which the EC50 at human FPR1 was 940 nM; at human FPR2 it was 7.5 nM.

Take `COc1cc(F)c([C@@H]2CN(c3c(C)ccn(CCO)c3=O)C(=O)[C@H]2NC(=O)c2ccc(OC(F)F)cc2)c(F)c1` [Example 262]: the EC50 at human FPR1 is 18 nM; at human FPR2 it was 7.5 nM.

On to `COc1cc(F)c([C@@H]2CN(c3nccc(NC4CCOC4)c3C(F)(F)F)C(=O)[C@H]2NC(=O)c2ccc(Cl)cc2)c(F)c1` (some centres unmarked) [Example 263], for which the concentration for a half-maximal effect (EC50) turned out to be 1300 nM at human FPR1 and 7.5 nM on human FPR2.

Regarding `COc1ccc([C@@H]2CN(c3c(C)ccn(C4CCOC4)c3=O)C(=O)[C@H]2NC(=O)c2ccc(OC(F)F)cc2)cc1` (some centres unmarked) [Example 265], the EC50 on human FPR1 was 1.5 nM; on human FPR2, 7.6 nM.

With `COc1cc(F)c([C@@H]2CN(c3nc(N4C(=O)CC[C@H]4CO)ccc3F)C(=O)[C@H]2NC(=O)c2ccc(OC(F)F)cc2)c(F)c1` [Example 266], the EC50 on human FPR1 is 410 nM; at human FPR2, 7.6 nM.

Turning to `COc1cc(F)c([C@@H]2CN(c3cc(F)cc(C(C)(C)O)c3)C(=O)[C@H]2NC(=O)c2ccc(Cl)cc2)c(F)c1` [Example 267], the EC50 at human FPR1 came to 1600 nM; on human FPR2, 7.7 nM.

As to `COCCn1cc(F)cc(N2C[C@@H](c3c(F)cc(OC)cc3F)[C@H](NC(=O)c3ccc(OC(F)F)cc3)C2=O)c1=O` [Example 268], the results for the EC50 on human FPR1 and at human FPR2 were 140 nM and 7.7 nM, respectively.

On to `COc1cc(F)c([C@@H]2CN(c3cccn(CC4CC(F)(F)C4)c3=O)C(=O)[C@H]2NC(=O)c2ccc(OC(F)(F)F)cc2)c(F)c1` [Example 269], for which the results for the EC50 on human FPR1 and on human FPR2 were 27 nM and 7.7 nM, respectively.

Regarding `COc1cc(F)c([C@@H]2CN(c3nc(C4CCNCC4)ccc3C(F)(F)F)C(=O)[C@H]2NC(=O)c2ccc(OC(F)F)cc2)c(F)c1` [Example 270], the figures for the EC50 on human FPR1 and at human FPR2 were 180 nM and 7.8 nM, respectively.

For `COc1cc(F)c([C@@H]2CN(c3nc(NC4CCOC4)ccc3F)C(=O)[C@H]2NC(=O)c2ccc(OC(F)F)cc2)c(F)c1` (some centres unmarked) [Example 271], the EC50 on human FPR1 came out at 1400 nM; at human FPR2, 7.8 nM.

Regarding `COc1cc(F)c([C@@H]2CN(c3cccn(CC4CC4)c3=O)C(=O)[C@H]2NC(=O)c2ccc(OC(F)(F)F)cc2)c(F)c1` [Example 272], the EC50 on human FPR1 was 14 nM; at human FPR2, 7.8 nM.

Consider `COc1cc(F)c([C@@H]2CN(c3cccn(CCO)c3=O)C(=O)[C@H]2NC(=O)c2ccc(C)cc2)c(F)c1` [Example 273], for which the EC50 at human FPR1 was 1400 nM; at human FPR2 it was 7.8 nM.

With `CNC(=O)C(C)Nc1ccnc(N2C[C@@H](c3c(F)cc(OC)cc3F)[C@H](NC(=O)c3ccc(Cl)cc3)C2=O)c1C(F)(F)F` (some centres unmarked) [Example 275], the EC50 stood at 6100 nM on human FPR1 and 8 nM on human FPR2.

Regarding `COCCn1cccc(N2C[C@@H](c3ccc(OC)cc3)[C@H](NC(=O)c3ccc(OC(F)F)cc3)C2=O)c1=O` [Example 276], the EC50 at human FPR1 stood at 13 nM; at human FPR2, 8 nM.

Consider `COCCn1cccc(N2C[C@@H](c3c(F)cc(OC)cc3F)[C@H](NC(=O)c3ccc(C(F)(F)F)cc3)C2=O)c1=O` [Example 277], for which the EC50 on human FPR1 came out at 210 nM; at human FPR2, 8 nM.

With `COc1cc(F)c([C@@H]2CN(c3cccn(CCN4CCOCC4)c3=O)C(=O)[C@H]2NC(=O)c2ccc(OC(F)(F)F)cc2)c(F)c1` [Example 278], the EC50 amounted to 340 nM at human FPR1 and 8.1 nM on human FPR2.

For `COc1cc(F)c([C@@H]2CN(c3nccc(N4CCN(C)CC4)c3C(F)(F)F)C(=O)[C@H]2NC(=O)c2ccc(OC(F)F)cc2)c(F)c1` [Example 279], the EC50 was found to be 5800 nM at human FPR1 and 8.1 nM on human FPR2.

As for `COc1cc(F)c([C@@H]2CN(c3nc(N4CCCC4=O)ccc3F)C(=O)[C@H]2NC(=O)c2ccc(OC(F)F)cc2)c(F)c1` [Example 280], the values for the EC50 on human FPR1 and on human FPR2 were 26 nM and 8.2 nM, respectively.
